Measured values: ChEMBL document CHEMBL1201862, “PubChem BioAssay data set” (2004)
The source made the active and inactive calls.

Experiments:
[1] = A549 cell cytotoxicity, dose response, cytotoxicity control, plate reader, cherry-pick, antagonist series (AID 743412); assay type: functional, cell-based
[2] = MC4R antagonists, dose response, counter-screen for LGR2 antagonist project, cell-based, plate reader, cherry pick (AID 743444); assay type: functional;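 further: transfected HEK 293 cells stimulated with alpha-MSH peptide; potency of inhibitors of the alpha-MSH evoked signal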
[3] = Luminescence Cell-Based Dose Response HTS to Identify Inhibitors of 5'UTR Stem-Loop Driven Prion Protein mRNA Translation in H4 Neuroglioblastoma Cells. [Related pubchem assays: 1827 (Project Summary), 1813 (Primary HTS)]; assay type: functional
[4] = HepG2 cell cytotoxicity, dose response, cytotoxicity control, plate reader, cherry-pick, antagonist series (AID 743416); assay type: functional, cell-based
[5] = inhibitors of SNCA 5'UTR-driven reporter translation, confirmation, H4 neuroglioma cells, luminescence (AID 1988); assay type: functional, cell-based
[6] = LGR2 antagonists, dose response, cell-based, HEK293, CRE-luciferase reporter, cherry pick, set 2 (AID 743343); assay type: functional;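 further: transfected cells were stimulated with diluted bursicon conditioned medium after compound addition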
HEK293 = assay: inhibitors of LMP1-driven NF-kB reporter, dose response, cell-based, HEK293, luciferase, cherry-pick (AID 588343); assay type: functional; conditions: Homo sapiens
[7] = ADAM10 inhibitors, peptide cleavage, dose response, biochemical, QFRET (AID 743254);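 further: ADAM10 enzyme with the DM2 quenched FRET peptide as substrate; EDANS fluorescence gain as the protease cuts the substrate; inhibitor potency against ADAM10 proteolytic activity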
[8] = molecular target: T1, Disintegrin and metalloproteinase domain-containing protein 17 (Homo sapiens, UniProt P78536); assay: ADAM17 protease inhibitors, dose response, counter-screen for ADAM10 exosite inhibitor project, biochemical, quenched FRET substrate (AID 743253)
T1 sequence (P78536 whole entry, the tested form may be a part): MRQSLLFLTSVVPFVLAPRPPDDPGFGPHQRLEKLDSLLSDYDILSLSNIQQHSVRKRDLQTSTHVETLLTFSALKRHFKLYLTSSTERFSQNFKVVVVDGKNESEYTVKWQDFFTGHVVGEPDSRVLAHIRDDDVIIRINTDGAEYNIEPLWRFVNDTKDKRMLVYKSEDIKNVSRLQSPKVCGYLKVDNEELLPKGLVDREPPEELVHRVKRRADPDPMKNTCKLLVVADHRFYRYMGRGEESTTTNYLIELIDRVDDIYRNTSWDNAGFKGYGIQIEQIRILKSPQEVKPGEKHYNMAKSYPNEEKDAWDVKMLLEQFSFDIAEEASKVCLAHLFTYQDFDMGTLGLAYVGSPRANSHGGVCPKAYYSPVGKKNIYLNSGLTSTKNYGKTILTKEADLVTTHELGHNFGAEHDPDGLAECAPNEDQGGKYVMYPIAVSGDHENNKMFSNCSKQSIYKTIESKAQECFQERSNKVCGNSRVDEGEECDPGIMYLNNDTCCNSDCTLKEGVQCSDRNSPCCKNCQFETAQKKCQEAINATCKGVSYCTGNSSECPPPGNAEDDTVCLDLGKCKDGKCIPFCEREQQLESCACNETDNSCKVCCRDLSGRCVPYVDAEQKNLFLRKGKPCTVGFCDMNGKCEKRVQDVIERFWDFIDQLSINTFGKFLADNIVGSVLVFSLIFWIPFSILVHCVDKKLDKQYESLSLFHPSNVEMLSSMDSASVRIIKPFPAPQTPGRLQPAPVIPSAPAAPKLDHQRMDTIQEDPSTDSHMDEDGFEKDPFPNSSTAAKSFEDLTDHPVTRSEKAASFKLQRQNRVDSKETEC

[9] = molecular target: T2, High affinity choline transporter 1 (Homo sapiens, UniProt Q9GZV3); assay: CHT inhibitors, dose response, cell-based, 5-point CRC, membrane potential dye (AID 504840); assay type: functional
T2 sequence (Q9GZV3 whole entry): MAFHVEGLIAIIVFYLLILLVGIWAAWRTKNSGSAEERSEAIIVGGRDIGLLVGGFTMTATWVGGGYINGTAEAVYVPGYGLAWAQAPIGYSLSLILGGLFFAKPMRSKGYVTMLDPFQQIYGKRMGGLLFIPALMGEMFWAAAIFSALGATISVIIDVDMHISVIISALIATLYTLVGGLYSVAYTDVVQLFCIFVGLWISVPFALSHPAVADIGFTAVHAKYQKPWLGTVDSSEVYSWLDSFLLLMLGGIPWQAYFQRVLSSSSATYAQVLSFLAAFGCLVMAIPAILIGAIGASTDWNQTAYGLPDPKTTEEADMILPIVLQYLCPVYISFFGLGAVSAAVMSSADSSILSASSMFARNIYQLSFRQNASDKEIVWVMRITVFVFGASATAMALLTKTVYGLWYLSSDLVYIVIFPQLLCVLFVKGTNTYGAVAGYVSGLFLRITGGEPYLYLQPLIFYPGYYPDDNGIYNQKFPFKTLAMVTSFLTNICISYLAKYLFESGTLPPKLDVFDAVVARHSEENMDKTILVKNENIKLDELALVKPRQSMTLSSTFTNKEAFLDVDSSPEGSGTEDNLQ

[10] = molecular target: T2, High affinity choline transporter 1; assay: CHT inhibitors, dose response, cell-based, 10-point CRC, membrane potential dye (AID 588401); assay type: functional;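 further: membrane potential dye fluorescence of choline-evoked depolarization via CHT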
H9c2 = assay: cells; assay type: functional, cell-based; conditions: Rattus norvegicus, H9c2, Myocardium;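 further: confirmatory concentration-response retest of ultra-high-throughput screening hits for modulation of myocardial damage; cell death induced by hydrogen peroxide oxidative stress; compound pretreatment for 60 min then peroxide exposure for 2 h; potency is for protecting the cells against peroxide damage rather than for killing them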
Galanin receptor type 3 = Galanin receptor type 3 (Homo sapiens, UniProt O60755); assay: Fluorescence-based cell-based primary high throughput dose response assay to identify antagonists of the Galanin Receptor 3 (GalR3).; assay type: functional
Galanin receptor type 3, sequence (O60755 whole entry): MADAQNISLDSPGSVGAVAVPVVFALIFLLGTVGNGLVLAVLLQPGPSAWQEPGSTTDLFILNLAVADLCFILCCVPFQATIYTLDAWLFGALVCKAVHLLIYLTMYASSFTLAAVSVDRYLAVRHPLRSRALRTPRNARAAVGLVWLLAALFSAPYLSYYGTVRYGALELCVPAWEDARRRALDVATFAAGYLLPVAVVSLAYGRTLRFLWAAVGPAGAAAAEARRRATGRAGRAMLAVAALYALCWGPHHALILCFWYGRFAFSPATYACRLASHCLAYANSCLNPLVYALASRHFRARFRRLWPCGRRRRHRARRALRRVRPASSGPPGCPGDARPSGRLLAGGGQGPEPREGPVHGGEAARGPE

cells [11] = assay type: functional, cell-based; conditions: HEK-CNG
[12] = HEK293T cell cytotoxicity, dose response, cytotoxicity control for HIV Vif inhibitor project, cherry-picks (AID 652208); assay type: functional, cell-based
Protein Wnt-3a = Protein Wnt-3a (Mus musculus, UniProt P27467); assay: Wnt3a-driven reporter signaling inhibition, dose response, selectivity assay for Gli-SUFU antagonist project, Wnt-LIGHT cells, luminescence (AID 651570); assay type: functional; conditions: read-out: IC50_Mean;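 further: Wnt-LIGHT reporter cells stimulated with conditioned medium from Wnt3a-producing cells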
Protein Wnt-3a, sequence (P27467 whole entry): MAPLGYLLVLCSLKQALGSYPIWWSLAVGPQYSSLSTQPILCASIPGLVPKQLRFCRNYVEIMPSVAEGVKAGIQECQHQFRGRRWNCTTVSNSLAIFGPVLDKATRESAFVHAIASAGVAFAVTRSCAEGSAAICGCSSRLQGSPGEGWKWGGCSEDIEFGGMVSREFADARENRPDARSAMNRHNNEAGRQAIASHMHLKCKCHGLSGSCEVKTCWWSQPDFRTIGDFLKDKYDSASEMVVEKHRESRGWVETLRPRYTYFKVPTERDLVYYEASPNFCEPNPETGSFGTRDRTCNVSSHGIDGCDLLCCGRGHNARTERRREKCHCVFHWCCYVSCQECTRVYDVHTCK

INS1 = assay: beta cell apoptosis inhibitors, cytokine rescue, dose response, luminescence, retest (AID 449756); assay type: functional, cell-based; conditions: Rattus norvegicus;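 further: cell death triggered by IL-1 beta plus TNF-alpha plus IFN-gamma mixture; protective hits raise ATP signal compared with cytokine alone wells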
[13] = molecular target: T3, COUP transcription factor 2 (Homo sapiens, UniProt P24468); assay: Luminescence-based cell-based high throughput dose response assay to identify inhibitors of COUP-TFII (NR2F2).; assay type: functional;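 further: HEK293 cells transiently cotransfected with COUP-TFII expression vector and reporter; luciferase reporter luminescence driven by COUP-TFII from the pX2-168 reporter plasmid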
T3 sequence (P24468 whole entry): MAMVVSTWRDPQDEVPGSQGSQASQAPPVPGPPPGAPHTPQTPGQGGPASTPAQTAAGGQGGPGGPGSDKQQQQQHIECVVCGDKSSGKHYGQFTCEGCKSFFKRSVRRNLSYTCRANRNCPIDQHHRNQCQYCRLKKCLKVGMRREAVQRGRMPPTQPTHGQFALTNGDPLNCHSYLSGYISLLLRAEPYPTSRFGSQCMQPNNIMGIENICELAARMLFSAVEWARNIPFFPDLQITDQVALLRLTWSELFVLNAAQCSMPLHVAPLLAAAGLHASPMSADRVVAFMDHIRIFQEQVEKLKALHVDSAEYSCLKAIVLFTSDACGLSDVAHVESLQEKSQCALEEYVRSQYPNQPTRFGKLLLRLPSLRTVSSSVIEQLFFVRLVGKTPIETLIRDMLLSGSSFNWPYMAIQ

[14] = HEK293T cytotoxicity, dose response, cytotoxicity control for miR-122 modulator project, cell-based, inhibitor set, cherry-pick, set 2 (AID 720697); assay type: functional
[15] = growth suppression of PTEN-null colon cells, dose response, cell-based, HCT116 PTEN knockout (AID 1047); assay type: functional;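 further: HCT116 colon tumor cells with PTEN knocked out; cells exposed to compound for 60 hours before readout; potency for loss of cell viability measured by luminescence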
[16] = growth suppression of beta-catenin-knockout colon cells, dose response, cell-based, HCT116, human colon tumor (AID 1045); assay type: functional;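 further: HCT116 colon tumor cells with beta catenin knocked out; cells exposed to compound for 60 hours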
[17] = ADAM10 protease inhibitors, dose response, selectivity assay for ADAM17 exosite inhibitor project, biochemical, FRET peptide substrate, recombinant human ADAM10 (AID 743259);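 further: ADAM10 enzyme cleaving a FRET peptide substrate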
[18] = molecular target: T4, Heat shock factor protein 1 (Mus musculus, UniProt P38532); assay: HSF1 potentiators in luciferase reporter cells, confirmation, cell-based, NIH3T3, luminescence, dose retest (AID 435004); assay type: functional;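 further: stress induced by proteasome inhibitor MG132 added 30 min after compound; luciferase reporter driven by HSF1 response element in NIH3T3 cells; actives raise luminescence as potentiators of the MG132 stress response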
T4 sequence (P38532 whole entry): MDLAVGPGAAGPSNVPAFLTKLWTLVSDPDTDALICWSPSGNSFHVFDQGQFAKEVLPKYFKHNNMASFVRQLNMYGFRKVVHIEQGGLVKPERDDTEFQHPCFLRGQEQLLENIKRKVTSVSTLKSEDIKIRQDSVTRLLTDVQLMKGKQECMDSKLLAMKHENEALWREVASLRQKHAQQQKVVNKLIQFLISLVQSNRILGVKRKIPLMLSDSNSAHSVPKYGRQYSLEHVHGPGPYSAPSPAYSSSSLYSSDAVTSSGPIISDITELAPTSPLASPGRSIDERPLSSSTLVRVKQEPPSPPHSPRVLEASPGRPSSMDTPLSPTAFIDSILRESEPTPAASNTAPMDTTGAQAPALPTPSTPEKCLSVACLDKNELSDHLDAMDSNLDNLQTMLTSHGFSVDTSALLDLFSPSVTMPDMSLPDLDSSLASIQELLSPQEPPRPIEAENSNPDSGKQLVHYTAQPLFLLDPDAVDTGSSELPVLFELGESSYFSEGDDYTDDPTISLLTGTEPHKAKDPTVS

[19] = molecular target: T1, Disintegrin and metalloproteinase domain-containing protein 17; assay: exosite inhibitors of ADAM17, dose response, biochemical (AID 743260)
[20] = molecular target: Fructose-bisphosphate aldolase (Mycobacterium tuberculosis, UniProt P9WQA3); assay: Fluorescence-based biochemical high throughput dose response assay for inhibitors of the fructose-bisphosphate aldolase (FBA) of M. tuberculosis.; assay type: functional
Fructose-bisphosphate aldolase, sequence (P9WQA3 whole entry): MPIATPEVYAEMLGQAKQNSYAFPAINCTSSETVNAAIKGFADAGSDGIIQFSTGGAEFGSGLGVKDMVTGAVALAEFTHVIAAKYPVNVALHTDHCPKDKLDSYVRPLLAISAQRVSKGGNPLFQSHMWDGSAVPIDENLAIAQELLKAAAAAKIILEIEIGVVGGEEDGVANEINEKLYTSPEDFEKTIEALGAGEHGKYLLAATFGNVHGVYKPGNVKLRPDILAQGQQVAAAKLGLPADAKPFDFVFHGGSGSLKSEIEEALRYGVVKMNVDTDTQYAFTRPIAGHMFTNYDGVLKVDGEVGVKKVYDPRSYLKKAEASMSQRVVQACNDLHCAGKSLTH

[21] = THP-1 cell cytotoxicity, dose response, cytotoxicity control for non-replicating M. tuberculosis project (AID 489025); assay type: functional
cells [22] = assay type: functional
[23] = intracellular Trypanosoma cruzi inhibitors in host cells – cell-based, plate reader, cherry-pick samples, set 3, dose response (AID 651818); assay type: functional;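 further: compounds incubated with infected cells for about four days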
[24] = IGROV1 ovarian cancer cell cytotoxicity, dose response, PAX8 inhibitor project, plate reader, dry powder samples (AID 743043); assay type: functional, cell-based; conditions: IGROV-1
[25] = NIH:OVCAR-3 ovarian cancer cell cytotoxicity, dose response, PAX8 inhibitor project, plate reader, dry powder samples (AID 743044); assay type: functional, cell-based
Paired box protein Pax-8 = Paired box protein Pax-8 (Homo sapiens, UniProt Q06710); assay: inhibitors of PAX8-driven TPO luciferase reporter, dose response, RMG-I cells, cherry-pick (AID 687027); assay type: functional, cell-based;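 further: luciferase reporter driven by Pax8 target thyroperoxidase promoter measured by SteadyGlo luminescence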
Paired box protein Pax-8, sequence (Q06710 whole entry): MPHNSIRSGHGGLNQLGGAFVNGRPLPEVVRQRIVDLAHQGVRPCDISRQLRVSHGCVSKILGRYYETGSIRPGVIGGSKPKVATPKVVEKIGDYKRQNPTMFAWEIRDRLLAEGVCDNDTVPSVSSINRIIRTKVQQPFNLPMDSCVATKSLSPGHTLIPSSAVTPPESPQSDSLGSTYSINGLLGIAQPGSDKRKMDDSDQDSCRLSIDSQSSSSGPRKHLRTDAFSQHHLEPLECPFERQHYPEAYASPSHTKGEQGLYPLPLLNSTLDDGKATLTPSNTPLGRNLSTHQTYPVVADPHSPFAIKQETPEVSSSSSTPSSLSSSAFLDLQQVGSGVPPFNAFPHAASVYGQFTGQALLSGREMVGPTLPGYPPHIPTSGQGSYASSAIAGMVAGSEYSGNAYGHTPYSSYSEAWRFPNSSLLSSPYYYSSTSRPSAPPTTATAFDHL

[26] = cytotoxicity in OVCAR8 ovarian cancer cells, dose response, PAX8 project, cell-based, plate reader, dry powder samples (AID 743197); assay type: functional; conditions: OVCAR-8
[27] = non-specific cell cytotoxicity, dose response, cytotoxicity control for PAX8 inhibitor project, plate reader, dry powder samples (AID 743021); assay type: functional, cell-based
Cryptococcus neoformans = assay: PubChem AID 686997; assay type: functional, organism-based
[28] = T. cruzi growth inhibition in host cells, dose response, cell-based, plate reader, dry powder, set 2 (AID 652275); assay type: functional
[29] = A375 melanoma cell viability loss, dose response, counter-screen for MITF inhibitor project, CellTiter-Glo luminescence, dry powder, set 4 (AID 624364); assay type: functional, cell-based; conditions: A-375;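 further: A375 melanoma cells are MITF independent so this is a counter screen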

SMILES: O=C(NCCc1ccccc1)c1ccc2nccnc2c1
- AC50 [1]: 22.1 µM (active)
- AC50 [2]: 4.77 µM (active)
- EC50 [3]: 9.34 µM (active)
- AC50 [4]: 20.3 µM (active)
- EC50 [5]: 9.37 µM (active)
- AC50 [6]: 5 µM (active)
- AC50 (HEK293): 3.05 µM (active)

SMILES: CC(C)C[C@H](NC(=O)c1[nH]cnc1C(=O)Nc1ccc(CNC(=O)OC(C)(C)C)cc1)C(=O)OC(C)(C)C
- IC50 [7]: > 69.5 µM (inactive)

SMILES: CC(C)C[C@H](NC(=O)c1nc[nH]c1C(=O)Nc1ccc(CNC(=O)OC(C)(C)C)cc1)C(=O)OC(C)(C)C
- IC50 [8]: > 69.5 µM (inactive)

SMILES: COc1ccc(-c2cc(=O)c3cc(O)ccc3o2)cc1
- IC50 [9]: 4.38 µM (active)
- IC50 [10]: 3.64 µM (active)

SMILES: Cc1noc(C)c1Cn1nc(C(=O)O)c2ccccc2c1=O
- IC50 (H9c2): 18.6 µM (active)
- IC50 (Galanin receptor type 3): > 29.9 µM (inactive)
- EC50 (cells [11]): > 29.9 µM (inactive)

SMILES: Cc1ccc(NS(=O)(=O)c2cccc(C(=O)NCC(c3ccco3)N3CCCCC3)c2)cc1 (stereo unspecified)
- IC50 [9]: 9.8 µM (active)
- IC50 [10]: 5.39 µM (active)

SMILES: CCc1ccc2[nH]c3nc(SCC(=O)NNC(=O)c4ccc(C(C)(C)C)cc4)nnc3c2c1
- AC50 [12]: 28.6 µM (active)

SMILES: NC(=O)c1c(-c2ccc(Cl)cc2Cl)csc1NC(=O)Cc1ccccc1
- IC50 (Galanin receptor type 3): 0.513 µM (active)
- EC50 (cells [11]): > 29.9 µM (inactive)
- IC50 (Protein Wnt-3a): 1.91 µM (active)
- AC50 (INS1): 2.86 µM (active)
- IC50 [13]: 5.15 µM (active)

SMILES: CC(=O)Nc1ccc(-c2cc(-c3ccc(NC(C)=O)cc3)nc(-c3ccc(NC(C)=O)cc3)n2)cc1
- AC50 [14]: 8.27 µM (active)

SMILES: O=C(/C=C/c1ccccc1)Nc1nc[nH]n1
- AC50 [12]: 23.6 µM (active)

SMILES: COc1cc(-c2nc(-c3ccc4c(c3)-c3ccccc3S4(=O)=O)c(-c3ccccc3)[nH]2)cc(OC)c1O
- EC50 [15]: 14 µM (active)
- EC50 [16]: 19.8 µM (active)
- IC50 [17]: > 69.5 µM (inactive)

SMILES: COc1cc(-c2nc(-c3ccccc3)c(-c3ccc4c(c3)-c3ccccc3S4(=O)=O)[nH]2)cc(OC)c1O
- EC50 [18]: 101 µM (active)
- IC50 [19]: > 69.5 µM (inactive)

SMILES: COc1ccc2nc3c(O)n4c(nc-3c2c1)SCC4
- IC50 [20]: 1.4 µM (active)

SMILES: COc1ccc2nc(N=C(N)NC(=O)C(C)(C)C)nc(C)c2c1
- CC50 [21]: > 40 µM (active)
- IC50 (cells [22]): 9.61 µM (active)
- IC50 [20]: 1.89 µM (active)

SMILES: COc1ccc(NC(S)=Nc2cc(-c3ccccc3)[nH]n2)cc1Cl
- IC50 [7]: > 69.5 µM (inactive)
- IC50 [8]: > 69.5 µM (inactive)

SMILES: C[C@@H]1CN([C@@H](C)CO)C(=O)c2cc(NC(=O)Nc3ccc(C(F)(F)F)cc3)ccc2O[C@H]1CN(C)C(=O)Nc1ccc(C(F)(F)F)cc1
- AC50 [23]: 3.41 µM (active)
- AC50 [24]: 52.1 µM (active)
- AC50 [25]: 42.1 µM (active)
- AC50 (Paired box protein Pax-8): 5.97 µM (active)
- AC50 [26]: 61.2 µM (active)

SMILES: C[C@@H]1CN([C@@H](C)CO)C(=O)Cc2cc(NC(=O)Cc3ccccc3)ccc2O[C@H]1CN(C)Cc1ccc(-c2ccccc2)cc1
- AC50 (Paired box protein Pax-8): 9.31 µM (active)
- AC50 [27]: 45.7 µM (active)

SMILES: COC(=O)C1=C(C)N(Cc2ccc(F)cc2)C(=S)NC1c1cccc(Cl)c1 (stereo unspecified)
- AC50 (Cryptococcus neoformans): 49.5 µM (active)
- AC50 (Cryptococcus neoformans; Cryptococcus neoformans): > 70 µM (inactive)

SMILES: C[C@@H]1CCCCO[C@H](CN(C)Cc2ccc(Cl)c(Cl)c2)[C@@H](C)CN([C@@H](C)CO)C(=O)c2cc(NC(=O)Cc3ccccc3)ccc2O1
- AC50 [24]: 50.5 µM (active)
- AC50 [25]: 33.4 µM (active)
- AC50 (Paired box protein Pax-8): 11.2 µM (active)
- AC50 [26]: > 70 µM (inactive)

SMILES: C[C@H]1CN([C@@H](C)CO)C(=O)c2cccc(NC(=O)c3ccncc3)c2O[C@@H]1CN(C)Cc1cc(Cl)cc(Cl)c1
- AC50 [28]: 0.0105 µM (active)

SMILES: CCC(=O)N1[C@H](CO)[C@@H](c2ccccc2)[C@@H]1CN(C(C)C)S(C)(=O)=O
- AC50 [14]: 0.51 µM (active)

SMILES: C=CCNC1=C(NS(=O)(=O)c2cccs2)C(=O)c2ccccc2C1=O
- AC50 [29]: > 70 µM (inactive)
